Experimental data taken from ChEMBL document CHEMBL1909294, “Translating clinical findings into knowledge in drug safety evaluation--drug induced liver injury prediction system (DILIps)” (PLoS Comput Biol, 2011).

Assays:
Hepatotoxicity [1] = tested on: Hepatotoxicity;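 as to HepSE bilirubinemia: bilirubinemia hepatic side effect score drawn from the DILIps training data, a prediction system for drug-induced liver injury; call rule not given here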;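 as to HepSE cholecystitis: Cholecystitis-related hepatic side effect score drawn from the DILIps (drug-induced liver injury prediction) training data set; call rule not given here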;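 as to HepSE cholelithiasis: hepatic side effect score for cholelithiasis, drawn from the DILIps training data for predicting drug-induced liver injury; call rule not given here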;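 as to HepSE cirrhosis: cirrhosis hepatic side effect score taken from the DILIps (drug-induced liver injury prediction) training set; call rule not given here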;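 as to HepSE elevated liver function tests: hepatic side effect score for raised liver function tests, as recorded in the DILIps training set used for predicting drug-induced liver injury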; as to HepSE hepatic failure: call rule not given here;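 as to HepSE hepatomegaly: hepatic side effect score for hepatomegaly, taken from the training set of the DILIps drug-induced liver injury prediction system; call rule not given here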
Hepatotoxicity [2] = tested on: Hepatotoxicity; remark: listed apart in the source;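 as to HepSE bilirubinemia: bilirubinemia hepatic side effect score drawn from the DILIps training data, a prediction system for drug-induced liver injury; call rule not given here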;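 as to HepSE cholecystitis: Cholecystitis-related hepatic side effect score drawn from the DILIps (drug-induced liver injury prediction) training data set; call rule not given here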;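 as to HepSE cholelithiasis: hepatic side effect score for cholelithiasis, drawn from the DILIps training data for predicting drug-induced liver injury; call rule not given here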;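 as to HepSE cirrhosis: cirrhosis hepatic side effect score taken from the DILIps (drug-induced liver injury prediction) training set; call rule not given here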;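 as to HepSE elevated liver function tests: hepatic side effect score for raised liver function tests, as recorded in the DILIps training set used for predicting drug-induced liver injury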; as to HepSE hepatic failure: call rule not given here
Hepatotoxicity [3] = tested on: Hepatotoxicity; remark: listed apart in the source;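 as to HepSE bilirubinemia: bilirubinemia hepatic side effect score drawn from the DILIps training data, a prediction system for drug-induced liver injury; call rule not given here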;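 as to HepSE cholecystitis: Cholecystitis-related hepatic side effect score drawn from the DILIps (drug-induced liver injury prediction) training data set; call rule not given here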;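 as to HepSE cholelithiasis: hepatic side effect score for cholelithiasis, drawn from the DILIps training data for predicting drug-induced liver injury; call rule not given here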;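 as to HepSE cirrhosis: cirrhosis hepatic side effect score taken from the DILIps (drug-induced liver injury prediction) training set; call rule not given here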;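 as to HepSE elevated liver function tests: hepatic side effect score for raised liver function tests, as recorded in the DILIps training set used for predicting drug-induced liver injury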; as to HepSE hepatic failure: call rule not given here
Hepatotoxicity [4] = tested on: Hepatotoxicity; remark: listed apart in the source;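 as to HepSE bilirubinemia: bilirubinemia hepatic side effect score drawn from the DILIps training data, a prediction system for drug-induced liver injury; call rule not given here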;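 as to HepSE cholecystitis: Cholecystitis-related hepatic side effect score drawn from the DILIps (drug-induced liver injury prediction) training data set; call rule not given here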;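 as to HepSE cholelithiasis: hepatic side effect score for cholelithiasis, drawn from the DILIps training data for predicting drug-induced liver injury; call rule not given here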;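 as to HepSE cirrhosis: cirrhosis hepatic side effect score taken from the DILIps (drug-induced liver injury prediction) training set; call rule not given here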;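 as to HepSE elevated liver function tests: hepatic side effect score for raised liver function tests, as recorded in the DILIps training set used for predicting drug-induced liver injury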; as to HepSE hepatic failure: call rule not given here
Hepatotoxicity [5] = tested on: Hepatotoxicity; remark: listed apart in the source; as to HepSE hepatic failure: call rule not given here
Hepatotoxicity [6] = tested on: Hepatotoxicity; remark: listed apart in the source; as to HepSE hepatic failure: call rule not given here
Hepatotoxicity [7] = tested on: Hepatotoxicity; remark: listed apart in the source
Hepatotoxicity [8] = tested on: Hepatotoxicity; remark: listed apart in the source
Hepatotoxicity [9] = tested on: Hepatotoxicity; remark: listed apart in the source
Hepatotoxicity [10] = tested on: Hepatotoxicity; remark: listed apart in the source
Hepatotoxicity [11] = tested on: Hepatotoxicity; remark: listed apart in the source
Hepatotoxicity [12] = tested on: Hepatotoxicity; remark: listed apart in the source
Hepatotoxicity [13] = tested on: Hepatotoxicity; remark: listed apart in the source
Hepatotoxicity [14] = tested on: Hepatotoxicity; remark: listed apart in the source

Row | Structure (SMILES) | HepSE_bilirubinemia (Hepatotoxicity [1]) | HepSE_cholecystitis (Hepatotoxicity [2]) | HepSE_cholelithiasis (Hepatotoxicity [3]) | HepSE_cirrhosis (Hepatotoxicity [4]) | HepSE_elevated liver function tests (Hepatotoxicity [5]) | HepSE_hepatic failure (Hepatotoxicity [6]) | HepSE_hepatic necrosis (Hepatotoxicity [7]) | HepSE_hepatitis (Hepatotoxicity [8]) | HepSE_hepatomegaly (Hepatotoxicity [9]) | HepSE_jaundice (Hepatotoxicity [10]) | HepSE_liver disease (Hepatotoxicity [11]) | HepSE_liver fatty (Hepatotoxicity [12]) | HepSE_liver function tests abnormal (Hepatotoxicity [13]) | HepSE_Combined Scores (Hepatotoxicity [14]) | other results
1 | COc1cc2c(cc1OC)C(=O)C(CC1CCN(Cc3ccccc3)CC1)C2 (configuration not stated) [DONEPEZIL] | 1 | 1 | 1 | 0 | 0 | 0 | 0 | 1 | 0 | 1 | 0 | 0 | 1 | 6 | –
2 | NCCc1ccc(O)c(O)c1 [DOPAMINE] | – | – | – | – | – | – | – | – | – | – | – | – | – | – | HepSE_bilirubinemia (Hepatotoxicity [1]; Liver): 0; HepSE_cholecystitis (Hepatotoxicity [2]; Liver): 0; HepSE_cholelithiasis (Hepatotoxicity [3]; Liver): 0; HepSE_cirrhosis (Hepatotoxicity [4]; Liver): 0; HepSE_elevated liver function tests (Hepatotoxicity [5]; Liver): 0; HepSE_hepatic failure (Hepatotoxicity [6]; Liver): 0; HepSE_hepatic necrosis (Hepatotoxicity [7]; Liver): 0; HepSE_hepatitis (Hepatotoxicity [8]; Liver): 0; HepSE_hepatomegaly (Hepatotoxicity [9]; Liver): 0; HepSE_jaundice (Hepatotoxicity [10]; Liver): 0; HepSE_liver disease (Hepatotoxicity [11]; Liver): 0; HepSE_liver fatty (Hepatotoxicity [12]; Liver): 0; HepSE_liver function tests abnormal (Hepatotoxicity [13]; Liver): 0; HepSE_Combined Scores (Hepatotoxicity [14]; Liver): 0
3 | CCN[C@H]1C[C@H](C)S(=O)(=O)c2sc(S(N)(=O)=O)cc21 [DORZOLAMIDE] | 0 | 0 | 0 | 0 | 0 | 0 | 0 | 0 | 1 | 0 | 0 | 0 | 0 | 1 | –
4 | COc1cc(CC2c3c(cc(OC)c(OC)c3OC)CC[N+]2(C)CCCOC(=O)CCC(=O)OCCC[N+]2(C)CCc3cc(OC)c(OC)c(OC)c3C2Cc2cc(OC)c(OC)c(OC)c2)cc(OC)c1OC (configuration not stated) [DOXACURIUM] | 0 | 0 | 0 | 0 | 0 | 0 | 0 | 0 | 0 | 0 | 0 | 0 | 0 | 0 | –
5 | CCN1CC(CCN2CCOCC2)C(c2ccccc2)(c2ccccc2)C1=O (configuration not stated) [DOXAPRAM] | 0 | 0 | 0 | 0 | 0 | 0 | 0 | 0 | 0 | 0 | 0 | 0 | 0 | 0 | –
6 | COc1cc2nc(N3CCN(C(=O)C4COc5ccccc5O4)CC3)nc(N)c2cc1OC (configuration not stated) [DOXAZOSIN] | 0 | 0 | 1 | 0 | 0 | 0 | 0 | 1 | 0 | 1 | 0 | 0 | 1 | 4 | –
7 | CN(C)CCC=C1c2ccccc2COc2ccccc21 [DOXEPIN] | 0 | 0 | 0 | 0 | 0 | 0 | 0 | 0 | 0 | 1 | 0 | 0 | 0 | 1 | –
8 | COc1cccc2c1C(=O)c1c(O)c3c(c(O)c1C2=O)C[C@@](O)(C(=O)CO)C[C@@H]3O[C@H]1C[C@H](N)[C@H](O)[C@H](C)O1 [DOXORUBICIN] | 1 | 0 | 0 | 0 | 0 | 1 | 0 | 1 | 0 | 1 | 0 | 0 | 1 | 5 | –
9 | Cc1cn([C@H]2C[C@H](O)[C@@H](CO)O2)c(=O)[nH]c1=O [DOXRIBTIMINE] | 0 | 0 | 0 | 0 | 0 | 0 | 0 | 1 | 0 | 0 | 0 | 0 | 0 | 1 | –
10 | C[C@H]1c2cccc(O)c2C(=O)C2=C(O)[C@]3(O)C(=O)C(C(N)=O)=C(O)[C@@H](N(C)C)[C@@H]3[C@@H](O)[C@@H]21.O [DOXYCYCLINE] | 0 | 0 | 0 | 0 | 0 | 0 | 0 | 0 | 0 | 0 | 0 | 0 | 0 | 0 | –
11 | CCCCCc1cc(O)c2c(c1)OC(C)(C)[C@@H]1CCC(C)=C[C@@H]21 [DRONABINOL] | 0 | 0 | 0 | 0 | 0 | 0 | 0 | 0 | 0 | 0 | 0 | 0 | 0 | 0 | –
12 | CNCC[C@H](Oc1cccc2ccccc12)c1cccs1 [DULOXETINE] | – | – | – | – | – | – | – | – | – | – | – | – | – | – | HepSE_bilirubinemia (Hepatotoxicity [1]; Liver): 0; HepSE_cholecystitis (Hepatotoxicity [2]; Liver): 0; HepSE_cholelithiasis (Hepatotoxicity [3]; Liver): 0; HepSE_cirrhosis (Hepatotoxicity [4]; Liver): 0; HepSE_elevated liver function tests (Hepatotoxicity [5]; Liver): 0; HepSE_hepatic failure (Hepatotoxicity [6]; Liver): 0; HepSE_hepatic necrosis (Hepatotoxicity [7]; Liver): 0; HepSE_hepatitis (Hepatotoxicity [8]; Liver): 1; HepSE_hepatomegaly (Hepatotoxicity [9]; Liver): 0; HepSE_jaundice (Hepatotoxicity [10]; Liver): 1; HepSE_liver disease (Hepatotoxicity [11]; Liver): 0; HepSE_liver fatty (Hepatotoxicity [12]; Liver): 1; HepSE_liver function tests abnormal (Hepatotoxicity [13]; Liver): 0; HepSE_Combined Scores (Hepatotoxicity [14]; Liver): 3
13 | C[C@]12C=CC(=O)N[C@@H]1CC[C@@H]1[C@@H]2CC[C@]2(C)[C@@H](C(=O)Nc3cc(C(F)(F)F)ccc3C(F)(F)F)CC[C@@H]12 [DUTASTERIDE] | 0 | 0 | 0 | 0 | 0 | 0 | 0 | 0 | 0 | 0 | 0 | 0 | 0 | 0 | –
